Values after ≈ are worked out from the molar mass of the structure shown. Blank lines part the entries; values can stand above or below the compound they belong to.
Legend:
[1] = AUC in rat plasma at 30 mg/kg, po in presence of [14-C]asciminib relative to radioactivity of [14-C] AUC; assay type: ADME, organism-based; conditions: in vivo
[2] = AUC (0 to 8 hrs) in rat plasma at 30 mg/kg, po relative to radioactivity of 14-C AUC; assay type: ADME, organism-based; conditions: in vivo
[3] = Drug uptake in male rat central nervous system at 30 mg/kg, po; assay type: ADME, organism-based; conditions: in vivo, BLD = below limit of detection
[4] = Drug uptake in female rat central nervous system at 30 mg/kg, po; assay type: ADME, organism-based; conditions: in vivo
[5] = Apparent permeability in MDCK cells; assay type: ADME, cell-based, Canis lupus familiaris; conditions: dog, MDCK-MDR1
[6] = Solubility of the compound in pH 1 0.1N HCl buffer incubated up to 72 hrs by shake flask method; assay type: physicochemical
[7] = AUC (0 to 8 hrs) in human plasma at 80 mg, po qd administered as water suspension by HPLC analysis relative to radioactivity of 14-C AUC; assay type: ADME, organism-based; conditions: in vivo
[8] = Solubility of the compound in chloride free pH 6.8 phosphate buffer incubated up to 72 hrs by shake flask method; assay type: physicochemical
[9] = Unbound brain to plasma concentration ratio in C57BL/6 mouse brain at 30 mg/kg, ip; assay type: ADME, organism-based; conditions: brain and plasma, read-out: K(p,uu,brain)
[10] = Tmax in C57BL/6 mouse at 30 mg/kg, po; assay type: ADME, organism-based; conditions: in vivo
[11] = Ratio of drug level in C57BL/6 mouse blood to brain at 30 mg/kg, ip measured at 4 hrs; assay type: ADME, organism-based; conditions: in vivo
[12] = Efflux ratio of apparent permeability across basolateral to apical side over apical to basolateral side in human Caco2 cells; assay type: ADME, cell-based; conditions: Caco-2
[13] = Antiproliferative activity against human Fu97 cells measured after 72 hrs by celltiter-glo luminescent cell viability assay; assay type: functional, cell-based
[14] = Ratio of drug level in C57BL/6 mouse blood to brain at 1 mg/kg, iv measured after 5 mins; assay type: ADME, organism-based; conditions: in vivo
[15] = Dose normalized AUC (infinity) in C57BL/6 mouse at 1 mg/kg, iv; assay type: ADME, organism-based; conditions: in vivo
[16] = Intrinsic clearance in rat liver microsomes; assay type: ADME, Microsome; conditions: read-out: CLH
[17] = target: T1, Mu-type opioid receptor (Homo sapiens, UniProt P35372); assay: Displacement of [3H]morphine binding to recombinant human full-length MOR expressed in CHO-K1 cells at 30 uM measured after 60 mins by scintillation counting analysis relative to control; assay type: cell-based
T1 sequence (P35372 whole entry): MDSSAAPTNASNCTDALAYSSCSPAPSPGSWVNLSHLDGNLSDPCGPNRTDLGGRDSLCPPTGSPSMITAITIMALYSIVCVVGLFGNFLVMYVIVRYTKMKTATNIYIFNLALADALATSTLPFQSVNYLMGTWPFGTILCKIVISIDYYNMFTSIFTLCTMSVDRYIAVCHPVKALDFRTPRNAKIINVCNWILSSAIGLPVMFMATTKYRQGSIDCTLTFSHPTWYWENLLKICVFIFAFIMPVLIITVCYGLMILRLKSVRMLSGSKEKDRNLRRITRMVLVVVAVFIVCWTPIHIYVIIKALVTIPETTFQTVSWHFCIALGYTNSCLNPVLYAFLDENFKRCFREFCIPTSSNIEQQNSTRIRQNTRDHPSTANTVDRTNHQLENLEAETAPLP

[18] = Dose normalized AUC (infinity) in C57BL/6 mouse blood at 30 mg/kg, ip; assay type: ADME, organism-based; conditions: in vivo
[19] = target: hERG (KCNH2) (Homo sapiens, UniProt Q12809); assay: Displacement of [3H]dofetilide from human ERG expressed in HEK293 cells at 30 uM measured after 45 mins by topcount scintillation counting method relative to control; assay type: toxicity, cell-based; conditions: HEK293 cells that express hERG, probe [3H]dofetilide
Chain of hERG (KCNH2) (Q12809 whole entry): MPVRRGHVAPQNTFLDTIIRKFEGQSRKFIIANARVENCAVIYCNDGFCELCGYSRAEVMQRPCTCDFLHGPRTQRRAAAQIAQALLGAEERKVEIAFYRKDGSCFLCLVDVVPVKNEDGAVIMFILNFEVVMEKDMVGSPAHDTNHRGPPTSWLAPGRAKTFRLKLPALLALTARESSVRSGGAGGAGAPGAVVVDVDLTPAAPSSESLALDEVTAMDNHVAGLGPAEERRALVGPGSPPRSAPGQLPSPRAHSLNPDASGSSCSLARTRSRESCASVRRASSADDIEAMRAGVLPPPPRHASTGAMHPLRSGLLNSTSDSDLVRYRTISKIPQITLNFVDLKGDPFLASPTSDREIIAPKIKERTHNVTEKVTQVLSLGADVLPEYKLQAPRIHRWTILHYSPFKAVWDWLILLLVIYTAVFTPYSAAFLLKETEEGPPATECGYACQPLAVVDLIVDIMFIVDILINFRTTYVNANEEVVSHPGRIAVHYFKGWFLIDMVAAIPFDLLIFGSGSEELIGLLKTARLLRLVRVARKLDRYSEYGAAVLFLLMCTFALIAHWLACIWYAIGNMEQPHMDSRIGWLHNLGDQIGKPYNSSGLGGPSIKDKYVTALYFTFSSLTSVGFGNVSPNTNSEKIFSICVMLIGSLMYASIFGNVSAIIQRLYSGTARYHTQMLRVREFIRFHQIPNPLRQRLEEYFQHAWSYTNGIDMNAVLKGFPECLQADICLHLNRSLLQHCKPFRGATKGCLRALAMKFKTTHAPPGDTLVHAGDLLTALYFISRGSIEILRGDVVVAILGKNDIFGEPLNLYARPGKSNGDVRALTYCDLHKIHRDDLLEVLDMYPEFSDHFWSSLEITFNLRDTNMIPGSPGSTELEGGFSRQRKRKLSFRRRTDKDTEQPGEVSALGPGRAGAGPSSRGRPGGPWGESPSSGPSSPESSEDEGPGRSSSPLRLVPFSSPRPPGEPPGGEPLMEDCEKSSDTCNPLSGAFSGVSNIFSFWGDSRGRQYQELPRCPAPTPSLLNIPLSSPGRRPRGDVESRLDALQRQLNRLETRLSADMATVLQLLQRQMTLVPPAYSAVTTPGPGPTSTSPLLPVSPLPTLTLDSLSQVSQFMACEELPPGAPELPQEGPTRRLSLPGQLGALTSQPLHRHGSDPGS

[20] = Dose normalized Cmax in C57BL/6 mouse at 30 mg/kg, ip; assay type: ADME, organism-based; conditions: in vivo
[21] = Apparent permeability across basolateral to apical side in human Caco-2 cells; assay type: ADME, cell-based
[22] = system: MDR1; assay: Efflux ratio of apparent permeability across basolateral to apical side over apical to basolateral side in MDCK-MDR1 cells; assay type: ADME, cell-based, Canis lupus familiaris; conditions: dog
[23] = Dose normalized AUC (infinity) in C57BL/6 mouse blood at 30 mg/kg, po; assay type: ADME, organism-based; conditions: in vivo
[24] = target: T1, Mu-type opioid receptor; assay: Displacement of [3H]morphine binding to recombinant human full-length MOR expressed in CHO-K1 cells measured after 60 mins by scintillation counting analysis; assay type: cell-based
[25] = Intrinsic clearance in mouse liver microsomes; assay type: ADME, Microsome; conditions: read-out: CLH
[26] = Dose normalized Cmax in C57BL/6 mouse at 30 mg/kg, po; assay type: ADME, organism-based; conditions: in vivo
[27] = system: BaF3; assay: Antiproliferative activity against mouse BaF3 cells expressing BCR-ABL by ATP-luminescence assay; assay type: functional, cell-based
[28] = Antiproliferative activity against human KBM-7 cells measured after 72 hrs by celltiter-glo luminescent cell viability assay; assay type: functional, cell-based
[29] = Ratio of drug level in C57BL/6 mouse blood to brain at 10 mg/kg, ip measured at 4 hrs; assay type: ADME, organism-based; conditions: in vivo
[30] = Antiproliferative activity against human SNU-213 cells measured after 72 hrs by celltiter-glo luminescent cell viability assay; assay type: functional, cell-based
[31] = target: Tyrosine-protein kinase ABL1 (Homo sapiens, UniProt P00519); assay: Inhibition of transphosphorylation of ABL1 SH1-3 domain (64 to 515 residues) (unknown origin) expressed in Escherichia coli using FITC-Ahx-EAIYAAPFAKKK-NH2) as substrate measured after 60 mins by caliper method
Chain of Tyrosine-protein kinase ABL1 (P00519 whole entry, the tested form may be a part): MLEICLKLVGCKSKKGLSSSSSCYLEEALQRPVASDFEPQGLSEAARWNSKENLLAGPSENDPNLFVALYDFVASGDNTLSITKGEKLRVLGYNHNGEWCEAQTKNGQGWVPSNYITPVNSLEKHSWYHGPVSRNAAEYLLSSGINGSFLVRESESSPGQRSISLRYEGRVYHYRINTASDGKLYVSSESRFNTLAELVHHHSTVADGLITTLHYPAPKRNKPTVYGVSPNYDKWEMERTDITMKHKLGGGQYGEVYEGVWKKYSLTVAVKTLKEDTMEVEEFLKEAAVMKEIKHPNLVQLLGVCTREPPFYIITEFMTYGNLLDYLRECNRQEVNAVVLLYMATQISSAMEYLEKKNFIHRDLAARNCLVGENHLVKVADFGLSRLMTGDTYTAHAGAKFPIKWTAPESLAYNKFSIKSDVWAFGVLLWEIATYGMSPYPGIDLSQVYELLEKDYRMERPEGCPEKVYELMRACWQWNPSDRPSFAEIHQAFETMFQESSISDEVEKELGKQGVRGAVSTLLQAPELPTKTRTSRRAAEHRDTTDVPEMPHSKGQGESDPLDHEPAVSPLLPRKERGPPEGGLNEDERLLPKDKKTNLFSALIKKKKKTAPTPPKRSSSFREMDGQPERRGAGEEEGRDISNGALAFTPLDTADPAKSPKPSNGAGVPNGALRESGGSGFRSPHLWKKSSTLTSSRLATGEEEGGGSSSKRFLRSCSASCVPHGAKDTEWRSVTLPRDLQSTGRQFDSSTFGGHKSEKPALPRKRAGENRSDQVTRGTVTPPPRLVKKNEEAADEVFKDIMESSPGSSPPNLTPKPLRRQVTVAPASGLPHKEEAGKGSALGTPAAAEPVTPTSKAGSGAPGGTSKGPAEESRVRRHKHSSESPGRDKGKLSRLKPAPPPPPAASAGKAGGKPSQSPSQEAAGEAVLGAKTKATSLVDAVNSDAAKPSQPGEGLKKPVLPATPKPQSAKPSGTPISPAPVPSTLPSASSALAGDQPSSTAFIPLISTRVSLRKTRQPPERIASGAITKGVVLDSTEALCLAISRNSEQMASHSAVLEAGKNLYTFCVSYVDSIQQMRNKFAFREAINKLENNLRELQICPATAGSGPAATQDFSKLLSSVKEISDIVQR

[32] = Dose normalized AUC (infinity) in C57BL/6 mouse brain at 30 mg/kg, ip; assay type: ADME, organism-based; conditions: in vivo
[33] = target: Voltage-gated inwardly rectifying potassium channel KCNH2 (Homo sapiens, UniProt Q12809); assay: Displacement of [3H]dofetilide from human ERG expressed in HEK293 cells measured after 45 mins by topcount scintillation counting method; assay type: toxicity, cell-based
Chain of Voltage-gated inwardly rectifying potassium channel KCNH2 (Q12809 whole entry): as the sequence (Q12809 whole entry) above

[34] = Ratio of drug level in C57BL/6 mouse brain at 30 mg/kg, ip to IC50 for antiproliferative activity against mouse BaF3 cells expressing BCR-ABL by ATP-luminescence assay; assay type: organism-based; conditions: in vivo
[35] = Volume of distribution at steady state in C57BL/6 mouse at 1 mg/kg, iv; assay type: ADME, organism-based; conditions: in vivo, read-out: Vdss
[36] = Drug level in C57BL/6 mouse brain at 30 mg/kg, ip measured at 4 hrs; assay type: ADME, organism-based; conditions: read-out: Drug uptake
[37] = Dose normalized AUC (infinity) in C57BL/6 mouse brain at 10 mg/kg, ip measured up to 4 hrs; assay type: ADME, organism-based; conditions: in vivo
[38] = Clearance in C57BL/6 mouse at 1 mg/kg, iv; assay type: ADME, organism-based; conditions: in vivo
[39] = Tmax in C57BL/6 mouse at 30 mg/kg, ip; assay type: ADME, organism-based; conditions: in vivo
[40] = Apparent permeability across apical to basolateral side in human Caco-2 cells; assay type: ADME, cell-based
[41] = Intrinsic clearance in dog liver microsomes; assay type: ADME, Canis lupus familiaris, Microsome; conditions: read-out: CLH
[42] = Antiproliferative activity against human CMK-86 cells measured after 72 hrs by celltiter-glo luminescent cell viability assay; assay type: functional, cell-based
[43] = Half life in C57BL/6 mouse at 1 mg/kg, iv; assay type: ADME, organism-based; conditions: in vivo
[44] = Intrinsic clearance in human liver microsomes; assay type: ADME, Microsome; conditions: read-out: CLH

Drug uptake [1]: 1.88%
Compound: O=C1CCN(c2ncc(C(=O)Nc3ccc(OC(F)(F)Cl)cc3)cc2-c2ccn[nH]2)C1

Drug uptake [1]: 0.39%
Compound: O=C(Nc1ccc(OC(F)(F)Cl)cc1)c1cnc(NCCC(O)CO)c(-c2ccn[nH]2)c1 (stereo not drawn)

Drug uptake [2]: 86%
Drug uptake [3]: Bld
Drug uptake [4]: Active
Papp [5]: 21.1 ×10⁻⁶ cm/s
solubility thermodynamic at 72 h [6]: > 1500 µg/mL
Drug uptake [7]: 92.7%
solubility thermodynamic at 72 h [8]: 4 µg/mL (≈ 8.89 µM)
Compound: O=C(Nc1ccc(OC(F)(F)Cl)cc1)c1cnc(N2CC[C@@H](O)C2)c(-c2ccn[nH]2)c1 [ASCIMINIB]

Kp uu [9]: 0.91
Tmax [10]: 1 h
Ratio [11]: 2.65
efflux ratio [12]: 0.41
Ratio [14]: 3.29
AUC/dose [15]: 2875 nM·h
CLint scaled [16]: 56 mL/min/kg
inhibition [17]: > 50%
AUC/dose [18]: 6672 nM·h
Cmax/dose [20]: 0.643 µM
Papp B→A [21]: 11.1 ×10⁻⁶ cm/s
efflux ratio [22]: 1.03
AUC/dose [23]: 5139 nM·h
AC50 [24]: 9780 nM
CLint scaled [25]: 31 mL/min/kg
Cmax/dose [26]: 0.629 µM
GI50 [27]: 69 nM
IC50 [27]: 75 nM
Ratio [29]: 2.32
Papp [5]: 24.5 ×10⁻⁶ cm/s
IC50 [31]: 33 nM
solubility thermodynamic at 72 h [6]: > 1500 µg/mL
AUC/dose [32]: 27926 nM·h
Vd [35]: 1.2 L/kg
concentration at 4 h [36]: 34.9 µM
AUC/dose [37]: 15720 nM·h
clearance [38]: 17 mL/min/kg
Tmax [39]: 1.8 h
Papp A→B [40]: 27.1 ×10⁻⁶ cm/s
CLint scaled [41]: 30 mL/min/kg
solubility thermodynamic at 72 h [8]: 3 µg/mL (≈ 8.35 µM)
half-life [43]: 0.9 h
CLint scaled [44]: 16 mL/min/kg
Compound: O=C(Nc1ccc(OC(F)(F)F)cc1)c1cncc(-c2cccnc2)c1
IC50 ([13]; Homo sapiens, Fu97, 72 h): > 30000 nM
%max ([13]; time 72 hrs): 55%
inhibition at 0.75 h, 30 µM [19]: > 50%
IC50 ([28]; Homo sapiens, KBM-7, 72 h): 197 nM
%max ([28]; time 72 hrs): 98%
IC50 ([30]; Homo sapiens, SNU-213, 72 h): 25000 nM
%max ([30]; time 72 hrs): 62%
AC50 [33]: 2800 nM
Ratio [34]: 465
IC50 ([42]; Homo sapiens, CMK-86, 72 h): 1600 nM
%max ([42]; time 72 hrs): 62%

— ChEMBL document CHEMBL5131455 (Bioorg Med Chem Lett, 2022)
